Measurements: ChEMBL document CHEMBL1144685, “Naphthamides as novel and potent vascular endothelial growth factor receptor tyrosine kinase inhibitors: design, synthesis, and evaluation” (J Med Chem, 2008)
The source made the active and inactive calls. The calls are words filed in the database; no cut-off is given here.

Assays:
HUVEC [1] = assay: cells; conditions: Homo sapiens
Description: Inhibition of VEGF-induced proliferation of HUVEC cells

[2] = biological target: Vascular endothelial growth factor receptor 2 (Homo sapiens, UniProt P35968)
Description: Inhibition of KDR by HTRF assay

HUVEC [3] = assay: cells; conditions: Homo sapiens; remark: listed apart in the source
Description: Inhibition of bFGF-induced proliferation of HUVEC cells

Mus musculus [4] = assay: Inhibition of vascular permeability in HEK293 cells over expressing recombinant mouse VEGF implanted CD1 nu/nu mouse at 30 mg/kg, po by Matrigel plug assay; assay type: functional, organism-based; parameters: dose 30 mg/kg
Mus musculus [5] = assay: Inhibition of vascular permeability in HEK293 cells over expressing recombinant mouse VEGF implanted CD1 nu/nu mouse at 100 mg/kg, po by Matrigel plug assay; assay type: functional, organism-based; parameters: dose 100 mg/kg
Mus musculus [6] = species on record: Mus musculus; assay: Inhibition of mouse KDR phosphorylation in BALB/c mouse lung assessed as phosphorylated Flk1 level by Delphia assay; assay type: functional, organism-based
HT-29 [7] = assay: Antitumor activity against human HT29 cell xenografted CD1 nu/nu mouse assessed as inhibition of tumor growth at 30 mg/kg, po after 10 days; assay type: functional, organism-based; parameters: dose 30 mg/kg
HT-29 [8] = assay: Antitumor activity against human HT29 cell xenografted CD1 nu/nu mouse assessed as inhibition of tumor growth at 10 mg/kg, po after 7 days; assay type: functional, organism-based; parameters: dose 10 mg/kg
Cytochrome P450 2D6 = Cytochrome P450 2D6 (Homo sapiens, UniProt P10635)
Cytochrome P450 2D6, sequence (P10635 whole entry): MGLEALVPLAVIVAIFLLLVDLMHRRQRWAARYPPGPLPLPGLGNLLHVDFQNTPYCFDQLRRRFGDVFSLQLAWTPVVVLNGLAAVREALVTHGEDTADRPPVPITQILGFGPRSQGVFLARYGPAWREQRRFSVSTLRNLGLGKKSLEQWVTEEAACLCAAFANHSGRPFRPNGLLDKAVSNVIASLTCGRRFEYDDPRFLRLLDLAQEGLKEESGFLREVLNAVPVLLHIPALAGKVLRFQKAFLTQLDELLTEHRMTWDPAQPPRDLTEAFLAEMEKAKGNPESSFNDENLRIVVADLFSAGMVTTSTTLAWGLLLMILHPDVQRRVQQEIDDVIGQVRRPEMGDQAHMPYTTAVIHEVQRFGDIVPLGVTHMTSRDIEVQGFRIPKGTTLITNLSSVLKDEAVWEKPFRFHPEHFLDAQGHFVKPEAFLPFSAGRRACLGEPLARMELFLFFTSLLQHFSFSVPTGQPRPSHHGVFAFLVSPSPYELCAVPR

[9] = Half life in Sprague-Dawley rat at 1 mg/kg, iv; assay type: ADME, organism-based; parameters: dose 1 mg/kg, route intravenous; conditions: in vivo
[10] = Volume of distribution at steady state in Sprague-Dawley rat at 1 mg/kg, iv; assay type: ADME, organism-based; parameters: dose 1 mg/kg, route intravenous; conditions: in vivo, read-out: Vdss
[11] = Intrinsic clearance in human liver microsomes; assay type: ADME, Microsome
[12] = AUC (0 to 24 hrs) in Sprague-Dawley rat at 10 mg/kg, po; assay type: ADME, organism-based; parameters: time < 24 hr, dose 10 mg/kg, route oral; conditions: plasma
Cytochrome P450 3A4 = Cytochrome P450 3A4 (Homo sapiens, UniProt P08684)
Cytochrome P450 3A4, sequence (P08684 whole entry): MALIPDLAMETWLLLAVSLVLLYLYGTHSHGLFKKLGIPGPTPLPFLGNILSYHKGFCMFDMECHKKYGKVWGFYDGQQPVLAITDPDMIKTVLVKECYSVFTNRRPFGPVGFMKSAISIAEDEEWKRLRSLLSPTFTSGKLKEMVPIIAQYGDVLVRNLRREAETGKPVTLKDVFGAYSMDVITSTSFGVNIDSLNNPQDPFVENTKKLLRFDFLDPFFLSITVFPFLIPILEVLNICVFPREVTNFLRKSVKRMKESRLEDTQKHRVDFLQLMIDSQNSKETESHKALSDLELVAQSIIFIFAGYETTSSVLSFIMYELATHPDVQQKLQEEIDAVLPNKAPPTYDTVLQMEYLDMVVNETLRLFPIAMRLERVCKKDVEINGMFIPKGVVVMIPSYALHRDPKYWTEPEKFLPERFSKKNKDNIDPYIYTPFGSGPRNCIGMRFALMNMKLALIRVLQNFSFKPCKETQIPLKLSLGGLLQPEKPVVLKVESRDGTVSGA

[13] = Mean retention time in Sprague-Dawley rat at 1 mg/kg, iv; assay type: ADME, organism-based; parameters: dose 1 mg/kg, route intravenous; conditions: in vivo
[14] = Clearance in Sprague-Dawley rat at 1 mg/kg, iv; assay type: ADME, organism-based; parameters: dose 1 mg/kg, route intravenous; conditions: in vivo
[15] = Intrinsic clearance in rat liver microsomes; assay type: ADME, Microsome
[16] = Cmax in Sprague-Dawley rat at 10 mg/kg, po; assay type: ADME, organism-based; parameters: dose 10 mg/kg, route oral; conditions: in vivo
[17] = Oral bioavailability in Sprague-Dawley rat at 10 mg/kg; assay type: ADME, organism-based; conditions: in vivo
[18] = Mean retention time in Sprague-Dawley rat at 0.5 mg/kg, iv; assay type: ADME, organism-based; parameters: dose 0.5 mg/kg, route intravenous; conditions: in vivo
[19] = Volume of distribution at steady state in Sprague-Dawley rat at 0.5 mg/kg, iv; assay type: ADME, organism-based; parameters: dose 0.5 mg/kg, route intravenous; conditions: in vivo, read-out: Vdss
[20] = Half life in Sprague-Dawley rat at 0.5 mg/kg, iv; assay type: ADME, organism-based; parameters: dose 0.5 mg/kg, route intravenous; conditions: in vivo
[21] = Clearance in Sprague-Dawley rat at 0.5 mg/kg, iv; assay type: ADME, organism-based; parameters: dose 0.5 mg/kg, route intravenous; conditions: in vivo
[22] = Cmax in Sprague-Dawley rat at 2 mg/kg, po; assay type: ADME, organism-based; parameters: dose 2 mg/kg, route oral; conditions: in vivo
[23] = AUC (0 to 24 hrs) in Sprague-Dawley rat at 2 mg/kg, po; assay type: ADME, organism-based; parameters: time < 24 hr, dose 2 mg/kg, route oral; conditions: plasma
[24] = Oral bioavailability in Sprague-Dawley rat at 2 mg/kg; assay type: ADME, organism-based; conditions: in vivo
[25] = AUC (0 to 24 hrs) in Sprague-Dawley rat at 2 mg/kg; assay type: ADME, organism-based; parameters: time < 24 hr, dose 2 mg/kg; conditions: plasma
[26] = Volume of distribution at steady state in Sprague-Dawley rat at 0.25 mg/kg, iv; assay type: ADME, organism-based; parameters: dose 0.25 mg/kg, route intravenous; conditions: in vivo, read-out: Vdss
[27] = Half life in Sprague-Dawley rat at 0.25 mg/kg, iv; assay type: ADME, organism-based; parameters: dose 0.25 mg/kg, route intravenous; conditions: in vivo
[28] = Mean retention time in Sprague-Dawley rat at 0.25 mg/kg, iv; assay type: ADME, organism-based; parameters: dose 0.25 mg/kg, route intravenous; conditions: in vivo
[29] = Clearance in Sprague-Dawley rat at 0.25 mg/kg, iv; assay type: ADME, organism-based; parameters: dose 0.25 mg/kg, route intravenous; conditions: in vivo
[30] = Cmax in Sprague-Dawley rat at 2 mg/kg; assay type: ADME, organism-based; parameters: dose 2 mg/kg; conditions: in vivo

Vascular endothelial growth factor receptor 2, sequence (P35968 whole entry): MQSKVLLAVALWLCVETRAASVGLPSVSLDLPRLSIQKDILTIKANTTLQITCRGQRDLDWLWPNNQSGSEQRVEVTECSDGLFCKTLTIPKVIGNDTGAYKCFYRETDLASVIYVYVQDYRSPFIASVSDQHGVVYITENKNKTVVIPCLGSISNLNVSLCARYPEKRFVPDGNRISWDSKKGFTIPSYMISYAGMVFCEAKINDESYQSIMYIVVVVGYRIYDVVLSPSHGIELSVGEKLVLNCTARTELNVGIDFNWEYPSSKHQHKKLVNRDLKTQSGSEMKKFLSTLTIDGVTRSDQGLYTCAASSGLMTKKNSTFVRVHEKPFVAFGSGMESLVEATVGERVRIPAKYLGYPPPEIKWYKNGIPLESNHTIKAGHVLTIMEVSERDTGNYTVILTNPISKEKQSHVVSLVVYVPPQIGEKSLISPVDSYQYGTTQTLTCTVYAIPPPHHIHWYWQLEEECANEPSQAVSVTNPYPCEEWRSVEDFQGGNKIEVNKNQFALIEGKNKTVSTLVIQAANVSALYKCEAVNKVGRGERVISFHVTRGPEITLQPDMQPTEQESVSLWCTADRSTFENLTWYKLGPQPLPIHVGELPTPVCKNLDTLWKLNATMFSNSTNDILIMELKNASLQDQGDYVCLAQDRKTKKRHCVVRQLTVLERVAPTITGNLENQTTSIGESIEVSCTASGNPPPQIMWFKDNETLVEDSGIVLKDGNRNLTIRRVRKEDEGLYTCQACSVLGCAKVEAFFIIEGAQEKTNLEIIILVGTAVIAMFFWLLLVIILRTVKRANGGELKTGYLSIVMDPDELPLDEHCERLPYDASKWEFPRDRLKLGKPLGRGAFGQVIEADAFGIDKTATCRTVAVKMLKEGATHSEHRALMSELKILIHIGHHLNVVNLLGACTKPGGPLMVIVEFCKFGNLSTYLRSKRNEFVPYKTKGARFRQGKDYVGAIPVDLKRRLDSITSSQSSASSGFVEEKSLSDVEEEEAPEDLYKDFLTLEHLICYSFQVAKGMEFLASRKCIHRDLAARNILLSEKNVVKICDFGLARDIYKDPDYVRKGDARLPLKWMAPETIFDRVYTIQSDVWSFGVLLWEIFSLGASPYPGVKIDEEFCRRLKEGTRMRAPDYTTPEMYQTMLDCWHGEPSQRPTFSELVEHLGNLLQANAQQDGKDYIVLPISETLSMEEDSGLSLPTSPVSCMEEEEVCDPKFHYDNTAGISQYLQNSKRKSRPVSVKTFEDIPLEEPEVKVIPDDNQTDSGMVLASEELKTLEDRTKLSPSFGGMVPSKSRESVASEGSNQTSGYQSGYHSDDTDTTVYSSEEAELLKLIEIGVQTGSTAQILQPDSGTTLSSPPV

With COc1cc2nccc(Oc3ccc4c(C(=O)NC5CCC5)cccc4c3)c2cc1OC the IC50 (HUVEC [1]) was 7 nM, the IC50 [2] was 3 nM and the IC50 (HUVEC [3]) was over 1140 nM.

In the case of COc1cc2nccc(Oc3ccc4c(C(=O)Nc5ccc(Cl)c(C(F)(F)F)c5)cccc4c3)c2cc1OC, the IC50 (HUVEC [1]) is reported as 247 nM, the IC50 [2] is reported as 1 nM and the IC50 (HUVEC [3]) is reported as 228 nM.

With COc1cc2nccc(Oc3ccc4c(C(=O)Nc5ccc(Cl)cc5)cccc4c3)c2cc1OC the Activity (Mus musculus [4]) was “Dose-dependent effect”, the Activity (Mus musculus [5]) was “Dose-dependent effect” and the Activity (Mus musculus [6]) was “Active”. The Activity (HT-29 [7]) was “Active” and the Activity (HT-29 [8]) was “Active”.

With COc1cc2nccc(Oc3ccc4c(C(=O)Nc5ccncc5)cccc4c3)c2cc1OC the IC50 (Cytochrome P450 2D6) was 700 nM, the half-life [9] was 1.8 h and the Vd [10] was 1.4 L/kg. For the same compound, the microsomal CLint [11] was 30 µL/min/mg, the IC50 (HUVEC [1]) was 2 nM and the AUC(0-t) at 24 h [12] was 11000 ng·h/mL. It also gave an IC50 (Cytochrome P450 3A4) of 100 nM, an MRT [13] of 2.5 h and a clearance [14] of 10 mL/min/kg. The microsomal CLint [15] was 80 µL/min/mg, the IC50 [2] was 2 nM and the Cmax [16] was 1690 ng/mL. For the same compound, the IC50 (HUVEC [3]) was over 1140 nM and the bioavailability [17] was 62%.

For COc1cc2nccc(Oc3ccc4c(C(=O)NC5CC5)cccc4c3)c2cc1OC, the IC50 (HUVEC [1]) was 1 nM.

In the case of COc1cc2nccc(Oc3ccc4c(C(=O)Nc5ccc(C)cc5)cccc4c3)c2cc1OC, the IC50 (HUVEC [1]) is reported as 2 nM, the IC50 [2] is reported as 0.5 nM and the IC50 (HUVEC [3]) is reported as 548 nM.

O=C(Nc1ccc(Cl)cc1)c1cccc2cc(Oc3ncnc4[nH]ccc34)ccc12 gave an IC50 (HUVEC [1]) of 37 nM, an IC50 [2] of 28 nM and an IC50 (HUVEC [3]) of over 1140 nM.

In the case of COc1cc2nccc(Oc3ccc4c(C(=O)Nc5cccc(Cl)c5)cccc4c3)c2cc1OC, the IC50 (HUVEC [1]) is reported as 5.1 nM and the IC50 [2] is reported as 0.3 nM.

Compound COc1cc2nccc(Oc3ccc4c(C(=O)Nc5ccccc5)cccc4c3)c2cc1OC has an IC50 (HUVEC [1]) of 0.8 nM, an IC50 [2] of 0.2 nM and an IC50 (HUVEC [3]) of 577 nM.

COc1cc2nccc(Oc3ccc4c(C(=O)Nc5cccnc5)cccc4c3)c2cc1OC showed an IC50 (Cytochrome P450 2D6) of 17000 nM, a half-life [9] of 1.1 h and a Vd [10] of 1.3 L/kg. The microsomal CLint [11] was 90 µL/min/mg, the IC50 (HUVEC [1]) was 2 nM and the AUC(0-t) at 24 h [12] was 27100 ng·h/mL. The IC50 (Cytochrome P450 3A4) was 2000 nM, the MRT [13] was 1.4 h and the clearance [14] was 15 mL/min/kg. The microsomal CLint [15] was 90 µL/min/mg, the IC50 [2] was 0.8 nM and the Cmax [16] was 5710 ng/mL. For the same compound, the IC50 (HUVEC [3]) was 1100 nM and the bioavailability [17] was 100%.

Compound COc1cc2nccc(Oc3ccc4c(C(=O)Nc5ccc(Cl)cc5)cccc4c3)c2cc1C(N)=O has an IC50 (HUVEC [1]) of 3 nM, an IC50 [2] of 0.2 nM and an IC50 (HUVEC [3]) of 380 nM.

With COc1cc2nccc(Oc3ccc4c(C(=O)Nc5cc(C)no5)cccc4c3)c2cc1OC the MRT [18] was 2.1 h, the IC50 (Cytochrome P450 2D6) was over 50000 nM and the microsomal CLint [11] was 40 µL/min/mg. For the same compound, the IC50 (HUVEC [1]) was 7 nM, the Vd [19] was 2.7 L/kg and the half-life [20] was 2.4 h. It also gave an IC50 (Cytochrome P450 3A4) of 40000 nM, a microsomal CLint [15] of 40 µL/min/mg and a clearance [21] of 21.7 mL/min/kg. For the same compound, the IC50 [2] was 1 nM and the IC50 (HUVEC [3]) was over 1140 nM.

In the case of COc1cc2nccc(Oc3ccc4c(C(=O)NC5CCCC5)cccc4c3)c2cc1OC, the IC50 (HUVEC [1]) is reported as 7 nM, the IC50 [2] is reported as 9 nM and the IC50 (HUVEC [3]) is reported as over 1140 nM.

Work on COc1cc2nccc(Oc3ccc4c(C(=O)Nc5ccccn5)cccc4c3)c2cc1OC yielded an IC50 (Cytochrome P450 2D6) of over 50000 nM, a half-life [9] of 6.1 h and a Vd [10] of 3.1 L/kg. The microsomal CLint [11] was 80 µL/min/mg, the Cmax [22] was 200 ng/mL and the IC50 (HUVEC [1]) was 2 nM. The AUC(0-t) at 24 h [23] was 1240 ng·h/mL, the bioavailability [24] was 45% and the IC50 (Cytochrome P450 3A4) was 13000 nM. The MRT [13] was 7.8 h, the clearance [14] was 6.67 mL/min/kg and the microsomal CLint [15] was 90 µL/min/mg. The IC50 [2] was 0.8 nM and the IC50 (HUVEC [3]) was 286 nM.

For COc1cc2nccc(Oc3ccc4c(C(=O)Nc5ccc(Cl)cc5)ccnc4c3)c2cc1OC, the IC50 (HUVEC [1]) was 10 nM, the IC50 [2] was 22 nM and the IC50 (HUVEC [3]) was 88 nM.

Compound COc1cc2nccc(Oc3ccc4c(C(=O)Nc5ccc(Cl)cc5)cccc4c3F)c2cc1OC has an IC50 (Cytochrome P450 2D6) of over 50000 nM, an AUC(0-t) at 24 h [25] of 6010 ng·h/mL and a Vd [26] of 2.4 L/kg. For the same compound, the microsomal CLint [11] was 30 µL/min/mg, the IC50 (HUVEC [1]) was 2 nM and the bioavailability [24] was 50%. The half-life [27] was 17 h, the IC50 (Cytochrome P450 3A4) was over 50000 nM and the MRT [28] was 22 h. The microsomal CLint [15] was 30 µL/min/mg, the IC50 [2] was 0.3 nM and the clearance [29] was 1.67 mL/min/kg. The IC50 (HUVEC [3]) was 280 nM and the Cmax [30] was 610 ng/mL.

In the case of CCCNC(=O)c1cccc2cc(Oc3ccnc4cc(OC)c(OC)cc34)ccc12, the IC50 (HUVEC [1]) is reported as 7 nM, the IC50 [2] is reported as 1.3 nM and the IC50 (HUVEC [3]) is reported as over 1140 nM.

Compound CNc1nccc(Oc2ccc3c(C(=O)Nc4ccc(Cl)cc4)cccc3c2)n1 has an IC50 (HUVEC [1]) of 296 nM, an IC50 [2] of 46 nM and an IC50 (HUVEC [3]) of over 1100 nM.

COc1cc2nccc(Oc3ccc4c(C(=O)Nc5nccs5)cccc4c3)c2cc1OC showed an IC50 (HUVEC [1]) of 2 nM and an IC50 (HUVEC [3]) of 605 nM.

COc1cc2nccc(Oc3ccc4c(C(=O)Nc5cccc(F)c5)cccc4c3)c2cc1OC gave an IC50 (HUVEC [1]) of 3 nM and an IC50 [2] of 0.6 nM.

In the case of COc1cc2nccc(Oc3ccc4c(C(=O)Nc5cc(Cl)cc(Cl)c5)cccc4c3)c2cc1OC, the IC50 (HUVEC [1]) is reported as 28 nM, the IC50 [2] is reported as 0.3 nM and the IC50 (HUVEC [3]) is reported as 742 nM.
